Laboratory results published in paper PMC12837263, “β,β-Dimethylacrylalkannin Restores Colistin Efficacy Against mcr- and TCS-Mediated Resistant Gram-Negative Bacteria via Membrane Disturbance” (Antibiotics, 2025).

Key:
Format in all cases: cell-based
[1] = tested on: K. pneumoniae 492(mcr-1、blaNDM); test: Checkerboard assay (MIC, FICI); details: 492
Protocol: (§1) The FICI of β,β-Dim–colistin combination was determined by a checkerboard assay. Briefly, two-fold serial dilutions of β,β-Dim and colistin were prepared in a 96-well plate. After incubation at 37 °C for 18 h with bacterial suspension (10^6 CFU/mL), OD600 values were measured. FICI = (MICβ,β-Dim in combination/MICβ,β-Dim) + (MICcolistin in combination/MICcolistin). The synergistic effect of β,β-Dim with other antibiotics was measured in the same way. Synergy was considered to be an FICI ≤ 0.5.

P. aeruginosa 9(mcr-1) = test: Checkerboard assay (MIC, FICI); details: P. aeruginosa 9
Protocol: as §1

K. pneumoniae 109(mcr-8) = test: Checkerboard assay (MIC, FICI); details: 109
Protocol: as §1

[2] = tested on: E. coli BW25113-pmrAD82N(pmrA); test: Checkerboard assay (MIC, FICI); details: BW25113-pmrAD82N
Protocol: as §1

K. pneumoniae ATCC 13883 = test: Checkerboard assay (MIC, FICI); details: 13883
Protocol: as §1

[3] = tested on: K. pneumoniae 197(mcr-1、blaNDM); test: Checkerboard assay (MIC, FICI); details: 197
Protocol: as §1

[4] = tested on: K. pneumoniae 57(mcr-9、blaNDM); test: Checkerboard assay (MIC, FICI); details: 57
Protocol: as §1

[5] = tested on: K. pneumoniae 667(phoP、pmrA、blaKPC); test: Checkerboard assay (MIC, FICI); details: 667
Protocol: as §1

K. pneumoniae 20(mcr-1) = test: Checkerboard assay (MIC, FICI); details: 20(mcr-1)
Protocol: as §1

[6] = tested on: K. pneumoniae 29(mcr-8、pmrB、blaNDM); test: Checkerboard assay (MIC, FICI); details: 29
Protocol: as §1

[7] = tested on: S. Typhimurium 9891(mcr-1); test: Checkerboard assay (MIC, FICI); details: 9891
Protocol: as §1

E. coli 13f4(mcr-1) = test: Checkerboard assay (MIC, FICI); details: 13f4
Protocol: as §1

[8] = tested on: S. Typhimurium ATCC 14028; test: Checkerboard assay (MIC, FICI); details: 14028
Protocol: as §1

E. coli BW25113-184 = test: Checkerboard assay (MIC, FICI); details: BW25113-184
Protocol: as §1

E. coli ATCC 25922 = test: Checkerboard assay (MIC, FICI); details: 25922
Protocol: as §1

[9] = tested on: E. coli BW25113-pmrBR93P(pmrB); test: Checkerboard assay (MIC, FICI); details: BW25113-pmrBR93P
Protocol: as §1

E. coli pHSG299-mcr-3 = test: Checkerboard assay (MIC, FICI); details: pHSG299-mcr-3
Protocol: as §1

E. coli ZJ71(mcr-1) = test: Checkerboard assay (MIC, FICI); details: ZJ71
Protocol: as §1

K. pneumoniae 126(mcr-8) = test: Checkerboard assay (MIC, FICI); details: 126
Protocol: as §1

A. baumannii ATCC 19606 = test: Checkerboard assay (MIC, FICI); details: 19606
Protocol: as §1

[10] = tested on: E. coli BW25113-184-mcr-1; test: Checkerboard assay (MIC, FICI); details: BW25113-184-mcr-1
Protocol: as §1

[11] = tested on: K. pneumoniae 650(mgrB、phoP、pmrA、blaKPC); test: Checkerboard assay (MIC, FICI); details: 650
Protocol: as §1

[12] = tested on: K. pneumoniae 251(mgrB、phoP、pmrA、blaKPC); test: Checkerboard assay (MIC, FICI); details: 251
Protocol: as §1

P. aeruginosa PAO1 = test: Checkerboard assay (MIC, FICI); details: PAO1
Protocol: as §1

K. pneumoniae 667 = test: Bacterial growth curves; details: β,β-Dim 4 µg/mL, colistin 0.5 µg/mL, alone or combined; 24 h
Protocol: Overnight cultures of K. pneumoniae 667 and E. coli 13f4 were diluted to 10^6 CFU/mL; then, β,β-Dim (4 μg/mL), colistin (0.5 or 2 μg/mL), and their combination were co-incubated with bacterial suspensions in a 96-well plate. OD600 values were monitored hourly over a 24 h period.

[13] = tested on: K. pneumoniae, E. coli, Salmonella, P. aeruginosa, and A. baumannii; test: Checkerboard assay, panel of tested strains (summary statements); details: with β,β-Dim; summary over tested strains
Protocol: as §1

## colistin
[1]; alone
  MIC of colistin: 4 µg/mL
[1]; fold drop of colistin MIC
  Potentation: 32
[1]; with β,β-Dim
  MIC of colistin [combination]: 0.125 µg/mL
P. aeruginosa 9(mcr-1); alone
  MIC of colistin: 4 µg/mL
P. aeruginosa 9(mcr-1); fold drop of colistin MIC
  Potentation: 8
P. aeruginosa 9(mcr-1); with β,β-Dim
  MIC of colistin [combination]: 0.5 µg/mL
K. pneumoniae 109(mcr-8); alone
  MIC of colistin: 16 µg/mL
K. pneumoniae 109(mcr-8); fold drop of colistin MIC
  Potentation: 64
K. pneumoniae 109(mcr-8); with β,β-Dim
  MIC of colistin [combination]: 0.25 µg/mL
[2]; alone
  MIC of colistin: 16 µg/mL
[2]; fold drop of colistin MIC
  Potentation: 32
[2]; with β,β-Dim
  MIC of colistin [combination]: 0.5 µg/mL
K. pneumoniae ATCC 13883; alone
  MIC of colistin: 0.5 µg/mL
K. pneumoniae ATCC 13883; fold drop of colistin MIC
  Potentation: 4
K. pneumoniae ATCC 13883; with β,β-Dim
  MIC of colistin [combination]: 0.125 µg/mL
[3]; alone
  MIC of colistin: 4 µg/mL
[3]; fold drop of colistin MIC
  Potentation: 8
[3]; with β,β-Dim
  MIC of colistin [combination]: 0.5 µg/mL
[4]; alone
  MIC of colistin: 2 µg/mL
[4]; fold drop of colistin MIC
  Potentation: 32
[4]; with β,β-Dim
  MIC of colistin [combination]: 0.0625 µg/mL
[5]; alone
  MIC of colistin: 64 µg/mL
[5]; fold drop of colistin MIC
  Potentation: 128
[5]; with β,β-Dim
  MIC of colistin [combination]: 0.5 µg/mL
K. pneumoniae 20(mcr-1); alone
  MIC of colistin: 64 µg/mL
K. pneumoniae 20(mcr-1); fold drop of colistin MIC
  Potentation: 64
K. pneumoniae 20(mcr-1); with β,β-Dim
  MIC of colistin [combination]: 1 µg/mL
[6]; alone
  MIC of colistin: 64 µg/mL
[6]; fold drop of colistin MIC
  Potentation: 256
[6]; with β,β-Dim
  MIC of colistin [combination]: 0.25 µg/mL
[7]; alone
  MIC of colistin: 16 µg/mL
[7]; fold drop of colistin MIC
  Potentation: 8
[7]; with β,β-Dim
  MIC of colistin [combination]: 2 µg/mL
E. coli 13f4(mcr-1); alone
  MIC of colistin: 4 µg/mL
E. coli 13f4(mcr-1); fold drop of colistin MIC
  Potentation: 4
E. coli 13f4(mcr-1); with β,β-Dim
  MIC of colistin [combination]: 1 µg/mL
[8]; alone
  MIC of colistin: 1 µg/mL
[8]; fold drop of colistin MIC
  Potentation: 2
[8]; with β,β-Dim
  MIC of colistin [combination]: 0.5 µg/mL
E. coli BW25113-184; alone
  MIC of colistin: 0.125 µg/mL
E. coli BW25113-184; fold drop of colistin MIC
  Potentation: 4
E. coli BW25113-184; with β,β-Dim
  MIC of colistin [combination]: 0.0313 µg/mL
E. coli ATCC 25922; alone
  MIC of colistin: 0.125 µg/mL
E. coli ATCC 25922; fold drop of colistin MIC
  Potentation: 4
E. coli ATCC 25922; with β,β-Dim
  MIC of colistin [combination]: 0.0313 µg/mL
[9]; alone
  MIC of colistin: 8 µg/mL
[9]; fold drop of colistin MIC
  Potentation: 32
[9]; with β,β-Dim
  MIC of colistin [combination]: 0.25 µg/mL
E. coli pHSG299-mcr-3; alone
  MIC of colistin: 2 µg/mL
E. coli pHSG299-mcr-3; fold drop of colistin MIC
  Potentation: 16
E. coli ZJ71(mcr-1); alone
  MIC of colistin: 4 µg/mL
E. coli ZJ71(mcr-1); fold drop of colistin MIC
  Potentation: 8
E. coli ZJ71(mcr-1); with β,β-Dim
  MIC of colistin [combination]: 0.5 µg/mL
K. pneumoniae 126(mcr-8); alone
  MIC of colistin: > 512 µg/mL
K. pneumoniae 126(mcr-8); fold drop of colistin MIC
  Potentation: 1024
K. pneumoniae 126(mcr-8); with β,β-Dim
  MIC of colistin [combination]: 0.5 µg/mL
A. baumannii ATCC 19606; alone
  MIC of colistin: 0.5 µg/mL
A. baumannii ATCC 19606; fold drop of colistin MIC
  Potentation: 64
A. baumannii ATCC 19606; with β,β-Dim
  MIC of colistin [combination]: 0.0078 µg/mL
[10]; alone
  MIC of colistin: 4 µg/mL
[10]; fold drop of colistin MIC
  Potentation: 4
[10]; with β,β-Dim
  MIC of colistin [combination]: 1 µg/mL
[11]; alone
  MIC of colistin: 32 µg/mL
[11]; fold drop of colistin MIC
  Potentation: 16
[11]; with β,β-Dim
  MIC of colistin [combination]: 2 µg/mL
[12]; alone
  MIC of colistin: 512 µg/mL
[12]; fold drop of colistin MIC
  Potentation: 1024
[12]; with β,β-Dim
  MIC of colistin [combination]: 0.5 µg/mL
P. aeruginosa PAO1; alone
  MIC of colistin: 1 µg/mL
P. aeruginosa PAO1; fold drop of colistin MIC
  Potentation: 2
P. aeruginosa PAO1; with β,β-Dim
  MIC of colistin [combination]: 0.5 µg/mL
K. pneumoniae 667
  bacterial growth (growth curves): neither β,β-Dim (4 µg/mL) nor colistin (0.5 µg/mL) alone inhibited the growth
[13]
  colistin MIC in combination: ≤ 2 µg/mL
  reduction of colistin MIC: 4–1024 fold
